Measurements reported in ChEMBL document CHEMBL1201862, “PubChem BioAssay data set” (2004).
Activity calls are given as the source filed them.

Experiments:
[1] = target: Muscarinic acetylcholine receptor M5 (Rattus norvegicus, UniProt P08911); experiment: Discovery of Selective Novel Positive Allosteric Modulators (PAM) of the Muscarinic Receptor (M5) in CHO cells expressing Rattus Norvegicus M5 receptor.; assay type: functional, cell-based
[2] = target: T1, Muscarinic acetylcholine receptor M5 (Homo sapiens, UniProt P08912); experiment: M5 positive allosteric modulator fold shift, mechanism study, cell-based, calcium fluorescence (AID 651776); assay type: functional
[3] = target: T1, Muscarinic acetylcholine receptor M5; experiment: M5 receptor positive allosteric modulators, dose response, cell-based, concentration-response curve (AID 651878); assay type: functional
Caspase-3 = target: T2, Caspase-3 (Homo sapiens, UniProt P42574); assay type: functional;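 also: Dose-response selectivity test against caspase-3 for candidate inhibitors of sentrin-specific proteases (SENPs)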
T2 sequence (P42574 whole entry): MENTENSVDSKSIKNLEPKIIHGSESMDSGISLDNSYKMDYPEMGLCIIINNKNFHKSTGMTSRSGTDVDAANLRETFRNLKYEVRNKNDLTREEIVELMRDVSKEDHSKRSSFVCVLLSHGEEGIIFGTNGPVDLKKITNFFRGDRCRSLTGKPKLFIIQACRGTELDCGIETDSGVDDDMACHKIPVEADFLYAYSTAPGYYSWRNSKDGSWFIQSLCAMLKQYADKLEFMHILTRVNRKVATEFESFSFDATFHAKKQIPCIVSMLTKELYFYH

[4] = target: T3, Sentrin-specific protease 7 (Homo sapiens, UniProt Q9BQF6); assay type: functional;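 also: Luminescence-based dose-response confirmation of ultra-high-throughput screening hits, measuring inhibition of SENP7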
T3 sequence (Q9BQF6 whole entry): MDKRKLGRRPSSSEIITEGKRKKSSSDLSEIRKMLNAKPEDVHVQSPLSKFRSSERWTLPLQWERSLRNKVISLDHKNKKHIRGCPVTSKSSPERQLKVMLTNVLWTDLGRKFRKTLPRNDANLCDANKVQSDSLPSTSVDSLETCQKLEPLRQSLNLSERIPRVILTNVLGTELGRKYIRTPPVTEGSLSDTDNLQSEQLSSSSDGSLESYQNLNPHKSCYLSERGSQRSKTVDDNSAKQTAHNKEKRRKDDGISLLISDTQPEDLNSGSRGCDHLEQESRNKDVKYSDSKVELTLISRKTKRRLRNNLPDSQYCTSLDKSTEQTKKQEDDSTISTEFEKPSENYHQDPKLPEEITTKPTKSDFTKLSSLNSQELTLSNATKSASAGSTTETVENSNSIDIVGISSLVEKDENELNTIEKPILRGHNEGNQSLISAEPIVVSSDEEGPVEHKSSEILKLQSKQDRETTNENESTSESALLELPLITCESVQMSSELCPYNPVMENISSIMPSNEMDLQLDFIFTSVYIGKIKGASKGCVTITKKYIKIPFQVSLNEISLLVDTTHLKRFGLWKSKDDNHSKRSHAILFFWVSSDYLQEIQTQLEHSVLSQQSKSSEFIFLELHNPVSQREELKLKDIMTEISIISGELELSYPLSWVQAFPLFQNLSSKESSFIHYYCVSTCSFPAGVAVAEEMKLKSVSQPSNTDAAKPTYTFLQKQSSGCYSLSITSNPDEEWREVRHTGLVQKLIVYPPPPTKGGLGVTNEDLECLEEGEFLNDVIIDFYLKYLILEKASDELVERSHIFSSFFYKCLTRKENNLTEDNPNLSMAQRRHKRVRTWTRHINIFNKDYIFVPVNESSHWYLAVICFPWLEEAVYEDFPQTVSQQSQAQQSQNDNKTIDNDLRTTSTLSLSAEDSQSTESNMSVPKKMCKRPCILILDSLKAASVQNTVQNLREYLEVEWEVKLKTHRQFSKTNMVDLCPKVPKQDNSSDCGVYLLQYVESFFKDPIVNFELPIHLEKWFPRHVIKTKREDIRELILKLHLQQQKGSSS

[5] = target: T4, Sentrin-specific protease 6 (Homo sapiens, UniProt Q9GZR1); assay type: functional;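 also: Luminescence-based dose-response confirmatory assay of SENP6 inhibition, following up an ultra-high-throughput screen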
T4 sequence (Q9GZR1 whole entry): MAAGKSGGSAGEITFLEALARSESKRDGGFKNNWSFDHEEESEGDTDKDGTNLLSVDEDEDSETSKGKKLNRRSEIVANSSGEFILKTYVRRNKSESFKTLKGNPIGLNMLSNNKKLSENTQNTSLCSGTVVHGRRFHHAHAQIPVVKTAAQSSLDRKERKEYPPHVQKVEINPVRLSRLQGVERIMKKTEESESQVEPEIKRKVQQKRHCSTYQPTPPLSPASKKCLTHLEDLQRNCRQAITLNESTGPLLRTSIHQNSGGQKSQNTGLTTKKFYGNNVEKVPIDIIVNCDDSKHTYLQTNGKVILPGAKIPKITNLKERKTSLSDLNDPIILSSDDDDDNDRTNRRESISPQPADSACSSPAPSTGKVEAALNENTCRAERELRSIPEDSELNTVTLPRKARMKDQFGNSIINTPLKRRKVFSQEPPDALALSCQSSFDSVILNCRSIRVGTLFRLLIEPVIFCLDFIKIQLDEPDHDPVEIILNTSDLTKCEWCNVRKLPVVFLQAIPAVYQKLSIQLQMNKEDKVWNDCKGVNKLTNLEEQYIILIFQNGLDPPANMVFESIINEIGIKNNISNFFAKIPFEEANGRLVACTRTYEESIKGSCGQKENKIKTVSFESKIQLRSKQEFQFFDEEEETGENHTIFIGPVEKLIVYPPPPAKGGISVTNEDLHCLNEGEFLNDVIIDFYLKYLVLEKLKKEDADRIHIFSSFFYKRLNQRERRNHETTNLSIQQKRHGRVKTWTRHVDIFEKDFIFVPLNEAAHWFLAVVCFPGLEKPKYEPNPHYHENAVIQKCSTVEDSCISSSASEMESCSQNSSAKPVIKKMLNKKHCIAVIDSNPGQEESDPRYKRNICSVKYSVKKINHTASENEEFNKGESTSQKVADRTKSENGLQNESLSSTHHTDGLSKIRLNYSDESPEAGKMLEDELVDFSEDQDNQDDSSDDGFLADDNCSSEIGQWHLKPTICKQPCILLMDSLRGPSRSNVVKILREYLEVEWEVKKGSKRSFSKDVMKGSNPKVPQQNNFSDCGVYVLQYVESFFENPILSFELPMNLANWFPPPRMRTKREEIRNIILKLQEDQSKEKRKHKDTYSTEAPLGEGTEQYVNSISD

[6] = target: T5, Sentrin-specific protease 8 (Homo sapiens, UniProt Q96LD8); assay type: functional;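 also: luminescence read-out of SENP8 inhibition, dose-response confirmation following an ultra-high-throughput screen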
T5 sequence (Q96LD8 whole entry): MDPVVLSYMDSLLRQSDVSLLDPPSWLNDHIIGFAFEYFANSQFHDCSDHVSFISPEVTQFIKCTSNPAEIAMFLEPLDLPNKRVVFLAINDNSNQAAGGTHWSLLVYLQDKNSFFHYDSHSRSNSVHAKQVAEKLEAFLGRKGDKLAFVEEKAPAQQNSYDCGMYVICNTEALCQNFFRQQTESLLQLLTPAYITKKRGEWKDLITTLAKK

[7] = target: T6, Mitochondrial peptide methionine sulfoxide reductase (Bos taurus, UniProt P54149); experiment: Absorbance-based biochemical high throughput dose response assay for activators of Methionine sulfoxide reductase A (MsrA).; assay type: functional
T6 sequence (P54149 whole entry): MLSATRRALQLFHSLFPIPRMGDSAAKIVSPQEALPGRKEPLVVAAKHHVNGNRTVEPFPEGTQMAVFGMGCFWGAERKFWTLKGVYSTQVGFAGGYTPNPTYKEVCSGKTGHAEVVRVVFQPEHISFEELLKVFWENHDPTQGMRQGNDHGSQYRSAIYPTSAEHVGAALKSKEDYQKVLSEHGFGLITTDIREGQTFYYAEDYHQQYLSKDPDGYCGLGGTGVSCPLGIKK

Caspase-6 = target: T7, Caspase-6 (Homo sapiens, UniProt P55212); experiment: human caspase-6 inhibitors, dose response, biochemical, VEID-R110 fluorescence, cherry-pick (AID 720632)
T7 sequence (P55212 whole entry): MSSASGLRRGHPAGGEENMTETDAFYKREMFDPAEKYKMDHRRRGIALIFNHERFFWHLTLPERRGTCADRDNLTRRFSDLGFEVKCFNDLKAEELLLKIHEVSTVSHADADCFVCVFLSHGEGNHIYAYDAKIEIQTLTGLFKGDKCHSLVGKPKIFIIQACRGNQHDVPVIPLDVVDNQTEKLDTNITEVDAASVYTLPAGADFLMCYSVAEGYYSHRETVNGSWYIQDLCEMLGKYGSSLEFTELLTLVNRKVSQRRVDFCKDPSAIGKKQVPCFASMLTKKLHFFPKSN

Caspase-9 = Caspase-9 (Homo sapiens, UniProt P55211); experiment: caspase-9 enzyme inhibition, dose response, selectivity assay for caspase-6 inhibitor project, biochemical, fluorescence, plate reader, cherry-picked samples (AID 743293)
[8] = target: Tyrosyl-DNA phosphodiesterase 2 (Homo sapiens, UniProt O95551); experiment: human TDP2 enzyme inhibitors, dose response, biochemical, epi absorbance, IC50 (AID 743297)
Caspase-8 = Caspase-8 (Homo sapiens, UniProt Q14790); experiment: caspase-8 inhibition counter-screen, dose response, selectivity assay for caspase-6 inhibitor project, biochemical, Z-IETD-R110 fluorescence, cherry-picked samples (AID 743294)
[9] = target: Metabotropic glutamate receptor 7 (Homo sapiens, UniProt Q14831); experiment: mGlu7 positive allosteric modulators, dose response, cell-based, calcium mobilization, Galpha15 (AID 743384); assay type: functional
[10] = Luminescence-based cell-based high throughput dose response assay to identify activators of the DAF-12 from the parasite S. stercoralis (ssDAF-12).; assay type: functional
[11] = target: T8, Oxysterols receptor LXR-beta (Homo sapiens, UniProt P55055); experiment: LXR agonists, Gal4 luciferase reporter, dose response, counter-screen for ssDAF-12 agonist project, cell-based, luminescence, HEK293, S. stercoralis campaign (AID 720737); assay type: functional; conditions: read-out: IC50 (the source's name)
T8 sequence (P55055 whole entry): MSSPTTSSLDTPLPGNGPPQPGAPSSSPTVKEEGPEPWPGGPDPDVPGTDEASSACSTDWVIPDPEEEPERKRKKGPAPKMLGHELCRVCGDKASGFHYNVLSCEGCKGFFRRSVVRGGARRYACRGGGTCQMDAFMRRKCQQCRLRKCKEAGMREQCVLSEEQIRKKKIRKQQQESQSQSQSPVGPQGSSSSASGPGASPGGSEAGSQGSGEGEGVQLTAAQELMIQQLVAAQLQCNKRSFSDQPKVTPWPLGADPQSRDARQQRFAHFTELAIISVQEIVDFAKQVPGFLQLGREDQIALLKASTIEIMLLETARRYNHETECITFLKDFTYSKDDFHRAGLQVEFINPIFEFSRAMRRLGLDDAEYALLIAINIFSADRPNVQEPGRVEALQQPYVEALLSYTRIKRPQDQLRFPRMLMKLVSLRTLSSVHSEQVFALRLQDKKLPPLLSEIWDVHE

[12] = target: T8, Oxysterols receptor LXR-beta; assay type: functional, cell-based
Phospholipase D2 = Phospholipase D2 (Homo sapiens, UniProt O14939); experiment: PLD2 Cellular Concentration Response Study.; assay type: functional
Phospholipase D1 = Phospholipase D1 (Homo sapiens, UniProt Q13393); experiment: PLD1 Cellular Concentration Response Study.; assay type: functional
Nonstructural protein 1 = Nonstructural protein 1 (Influenza A virus, UniProt Q194T2); assay type: functional, Influenza A virus (A/California/07/2009(H1N1))
[13] = HEK293T cell cytotoxicity, dose response, cytotoxicity control, CellTiter-Glo luminescence, dry powder, set 2 (AID 720595); assay type: functional, cell-based; conditions: HEK293
[14] = P. falciparum Dd2 growth inhibitors, dose response, SYBR Green, dry powder samples, set 9 (AID 1159568); assay type: functional, cell-based
[15] = inhibitors of firefly luciferase expression or activity, dose response, H4 neuroglioma cells, luminescence (AID 1990); assay type: functional, cell-based
[16] = Luminescence Cell-Based Dose Response HTS to Identify Inhibitors of 5'UTR Stem-Loop Driven Prion Protein mRNA Translation in H4 Neuroglioblastoma Cells. [Related pubchem assays: 1827 (Project Summary), 1813 (Primary HTS)]; assay type: functional
[17] = inhibitors of SNCA 5'UTR-driven reporter translation, confirmation, H4 neuroglioma cells, luminescence (AID 1988); assay type: functional, cell-based
[18] = target: RNA-editing ligase 1, mitochondrial (Trypanosoma brucei brucei, UniProt P86926); experiment: TbREL1 ligase inhibitors, dose response, biochemical, fluorescence, Trypanosoma brucei (AID 1117295); assay type: functional
Chain of RNA-editing ligase 1, mitochondrial (P86926 whole entry): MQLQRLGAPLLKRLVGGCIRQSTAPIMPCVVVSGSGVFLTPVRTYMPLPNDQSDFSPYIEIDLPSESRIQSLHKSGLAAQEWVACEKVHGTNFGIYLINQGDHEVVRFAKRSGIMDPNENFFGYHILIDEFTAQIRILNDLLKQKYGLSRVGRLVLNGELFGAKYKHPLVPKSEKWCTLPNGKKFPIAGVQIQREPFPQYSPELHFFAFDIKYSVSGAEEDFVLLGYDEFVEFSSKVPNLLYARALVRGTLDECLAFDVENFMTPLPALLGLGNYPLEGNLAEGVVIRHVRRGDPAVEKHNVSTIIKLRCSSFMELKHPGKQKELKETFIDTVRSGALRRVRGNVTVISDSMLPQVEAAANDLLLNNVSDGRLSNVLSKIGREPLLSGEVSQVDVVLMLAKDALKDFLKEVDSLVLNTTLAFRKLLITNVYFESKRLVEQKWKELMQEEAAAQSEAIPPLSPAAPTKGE

T1 sequence (P08912 whole entry): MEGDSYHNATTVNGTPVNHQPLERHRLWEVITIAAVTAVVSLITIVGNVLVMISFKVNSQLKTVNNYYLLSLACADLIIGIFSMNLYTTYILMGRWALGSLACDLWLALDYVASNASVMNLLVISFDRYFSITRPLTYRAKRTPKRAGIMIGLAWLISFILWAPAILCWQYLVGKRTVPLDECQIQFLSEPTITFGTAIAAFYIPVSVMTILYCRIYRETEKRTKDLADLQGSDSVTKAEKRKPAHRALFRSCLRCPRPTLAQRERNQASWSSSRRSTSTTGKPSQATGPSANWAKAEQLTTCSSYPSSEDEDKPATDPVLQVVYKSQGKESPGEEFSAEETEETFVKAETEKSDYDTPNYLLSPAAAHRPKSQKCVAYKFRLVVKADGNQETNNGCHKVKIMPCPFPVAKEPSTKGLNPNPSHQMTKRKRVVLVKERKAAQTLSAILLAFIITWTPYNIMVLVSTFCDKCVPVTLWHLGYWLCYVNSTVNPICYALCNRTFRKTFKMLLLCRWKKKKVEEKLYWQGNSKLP
Chain of Tyrosyl-DNA phosphodiesterase 2 (O95551 whole entry): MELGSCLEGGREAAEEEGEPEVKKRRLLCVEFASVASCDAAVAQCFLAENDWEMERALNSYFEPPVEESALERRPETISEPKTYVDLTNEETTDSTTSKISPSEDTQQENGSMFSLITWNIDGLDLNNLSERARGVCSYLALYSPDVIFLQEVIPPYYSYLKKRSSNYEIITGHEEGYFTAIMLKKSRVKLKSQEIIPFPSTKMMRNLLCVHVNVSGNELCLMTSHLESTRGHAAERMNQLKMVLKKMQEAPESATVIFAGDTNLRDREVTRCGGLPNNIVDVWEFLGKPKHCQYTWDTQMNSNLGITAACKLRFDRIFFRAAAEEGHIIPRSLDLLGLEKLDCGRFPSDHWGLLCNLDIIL
Chain of Caspase-8 (Q14790 217-374 limits assumed): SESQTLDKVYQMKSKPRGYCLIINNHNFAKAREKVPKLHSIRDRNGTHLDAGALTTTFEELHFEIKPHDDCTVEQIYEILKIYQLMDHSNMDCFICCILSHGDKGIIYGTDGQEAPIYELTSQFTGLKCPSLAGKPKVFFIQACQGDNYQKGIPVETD
Chain of Caspase-8 (Q14790 385-479 limits assumed): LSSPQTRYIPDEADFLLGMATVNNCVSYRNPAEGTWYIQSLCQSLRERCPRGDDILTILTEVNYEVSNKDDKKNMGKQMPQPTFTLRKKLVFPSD
Chain of Phospholipase D1 (Q13393 whole entry): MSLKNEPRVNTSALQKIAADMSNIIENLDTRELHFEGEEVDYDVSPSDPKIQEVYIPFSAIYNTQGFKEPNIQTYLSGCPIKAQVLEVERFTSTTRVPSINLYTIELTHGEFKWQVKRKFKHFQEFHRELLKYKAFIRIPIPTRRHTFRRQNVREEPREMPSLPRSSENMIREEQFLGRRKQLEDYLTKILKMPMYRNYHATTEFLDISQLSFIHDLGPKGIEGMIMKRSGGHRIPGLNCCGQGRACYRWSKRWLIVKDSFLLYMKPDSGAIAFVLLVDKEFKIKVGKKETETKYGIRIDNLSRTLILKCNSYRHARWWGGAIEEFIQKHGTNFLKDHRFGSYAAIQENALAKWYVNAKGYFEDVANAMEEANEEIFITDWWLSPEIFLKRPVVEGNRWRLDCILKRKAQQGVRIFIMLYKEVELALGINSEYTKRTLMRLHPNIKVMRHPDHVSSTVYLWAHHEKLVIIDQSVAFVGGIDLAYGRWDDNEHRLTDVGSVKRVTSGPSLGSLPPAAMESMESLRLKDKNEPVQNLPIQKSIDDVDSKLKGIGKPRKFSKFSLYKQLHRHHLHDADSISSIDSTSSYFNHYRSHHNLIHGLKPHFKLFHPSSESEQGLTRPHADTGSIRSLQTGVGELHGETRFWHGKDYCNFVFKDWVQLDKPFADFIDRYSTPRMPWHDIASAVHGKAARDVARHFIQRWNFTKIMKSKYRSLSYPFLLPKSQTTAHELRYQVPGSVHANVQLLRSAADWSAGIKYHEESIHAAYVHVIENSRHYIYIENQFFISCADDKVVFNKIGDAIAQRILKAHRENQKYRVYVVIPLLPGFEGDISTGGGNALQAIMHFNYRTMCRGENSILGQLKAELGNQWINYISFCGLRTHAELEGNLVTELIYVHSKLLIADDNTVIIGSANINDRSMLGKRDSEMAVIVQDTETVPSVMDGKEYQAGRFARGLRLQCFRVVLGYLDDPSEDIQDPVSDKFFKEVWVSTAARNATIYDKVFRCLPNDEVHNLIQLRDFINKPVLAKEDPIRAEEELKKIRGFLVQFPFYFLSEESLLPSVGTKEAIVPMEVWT
Chain of Nonstructural protein 1 (Q194T2 whole entry): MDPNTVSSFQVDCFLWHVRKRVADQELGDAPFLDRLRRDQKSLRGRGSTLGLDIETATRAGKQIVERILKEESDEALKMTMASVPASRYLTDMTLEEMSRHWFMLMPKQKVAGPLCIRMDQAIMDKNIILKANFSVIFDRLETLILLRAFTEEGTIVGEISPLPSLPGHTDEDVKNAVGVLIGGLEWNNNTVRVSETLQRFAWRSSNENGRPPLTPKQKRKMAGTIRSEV
Chain of Phospholipase D2 (O14939 whole entry): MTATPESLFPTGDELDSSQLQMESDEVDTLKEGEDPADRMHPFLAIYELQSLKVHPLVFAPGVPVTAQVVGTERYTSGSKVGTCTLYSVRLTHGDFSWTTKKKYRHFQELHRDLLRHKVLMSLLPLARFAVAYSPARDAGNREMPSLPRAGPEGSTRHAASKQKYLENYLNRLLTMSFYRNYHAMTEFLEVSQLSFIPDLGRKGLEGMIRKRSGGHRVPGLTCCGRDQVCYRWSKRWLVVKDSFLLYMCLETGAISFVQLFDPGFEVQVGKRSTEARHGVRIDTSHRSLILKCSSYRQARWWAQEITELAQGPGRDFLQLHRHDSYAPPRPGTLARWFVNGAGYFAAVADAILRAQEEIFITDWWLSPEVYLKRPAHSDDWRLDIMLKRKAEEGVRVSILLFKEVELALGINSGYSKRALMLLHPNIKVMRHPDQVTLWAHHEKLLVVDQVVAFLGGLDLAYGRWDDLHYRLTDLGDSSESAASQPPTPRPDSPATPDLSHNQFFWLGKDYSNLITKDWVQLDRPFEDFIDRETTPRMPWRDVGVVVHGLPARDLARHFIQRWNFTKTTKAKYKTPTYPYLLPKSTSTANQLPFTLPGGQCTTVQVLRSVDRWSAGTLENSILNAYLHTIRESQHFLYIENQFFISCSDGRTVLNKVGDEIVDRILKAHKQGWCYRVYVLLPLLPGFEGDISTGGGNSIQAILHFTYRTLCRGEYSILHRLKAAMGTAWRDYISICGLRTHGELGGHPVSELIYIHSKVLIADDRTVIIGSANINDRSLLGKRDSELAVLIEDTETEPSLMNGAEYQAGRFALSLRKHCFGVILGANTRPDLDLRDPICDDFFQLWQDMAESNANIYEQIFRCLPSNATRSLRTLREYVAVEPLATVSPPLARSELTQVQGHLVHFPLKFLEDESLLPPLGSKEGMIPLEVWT
Chain of Muscarinic acetylcholine receptor M5 (Rattus norvegicus, UniProt P08911) (P08911 whole entry): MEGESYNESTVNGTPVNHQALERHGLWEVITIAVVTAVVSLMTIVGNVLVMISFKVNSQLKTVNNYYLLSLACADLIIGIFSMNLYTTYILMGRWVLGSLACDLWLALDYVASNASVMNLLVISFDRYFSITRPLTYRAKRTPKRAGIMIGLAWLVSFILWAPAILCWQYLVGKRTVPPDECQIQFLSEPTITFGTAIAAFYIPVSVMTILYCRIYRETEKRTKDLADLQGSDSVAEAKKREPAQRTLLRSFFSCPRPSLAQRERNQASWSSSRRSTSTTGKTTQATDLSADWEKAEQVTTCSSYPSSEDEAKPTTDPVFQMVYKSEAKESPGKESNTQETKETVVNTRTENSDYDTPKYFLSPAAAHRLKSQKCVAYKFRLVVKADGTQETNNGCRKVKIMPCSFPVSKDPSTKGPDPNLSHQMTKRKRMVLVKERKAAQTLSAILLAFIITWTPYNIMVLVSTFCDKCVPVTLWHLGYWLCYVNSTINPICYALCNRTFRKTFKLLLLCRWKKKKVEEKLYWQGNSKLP
Chain of Caspase-9 (P55211 1-315 limits assumed): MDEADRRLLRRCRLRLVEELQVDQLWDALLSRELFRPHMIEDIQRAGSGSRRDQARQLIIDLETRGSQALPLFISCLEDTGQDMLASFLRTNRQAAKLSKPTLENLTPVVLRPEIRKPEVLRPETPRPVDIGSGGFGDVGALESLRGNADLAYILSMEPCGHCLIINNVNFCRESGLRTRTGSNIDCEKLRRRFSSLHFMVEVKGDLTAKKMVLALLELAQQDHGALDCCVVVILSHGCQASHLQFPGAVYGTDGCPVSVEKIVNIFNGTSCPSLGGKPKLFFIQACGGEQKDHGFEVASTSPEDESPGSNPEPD
Chain of Caspase-9 (P55211 331-416 limits assumed): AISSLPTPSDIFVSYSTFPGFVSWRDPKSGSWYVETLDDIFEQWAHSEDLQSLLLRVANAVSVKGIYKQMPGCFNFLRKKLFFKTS

O=C1C(=O)N(CCOc2ccccc2)c2ccc(OC(F)(F)F)cc21
EC50 [1]: 0.466 µM
EC50 [2]: 51.6 µM (active)
EC50 [3]: 0.55 µM

COc1cc(NC(=O)COC(=O)c2ccc([N+](=O)[O-])s2)cc(OC)c1OC
IC50 (Caspase-3): 8.45 µM (active)
IC50 [4]: 5.51 µM (active)
IC50 [5]: 3.82 µM (active)
IC50 [6]: 3.88 µM (active)
EC50 [7]: 63.6 µM (inactive)
AC50 (Caspase-6): 2.44 µM (active)
AC50 (Caspase-9): 21.5 µM (active)
IC50 [8]: 48.3 µM (inactive)
AC50 (Caspase-8): 20.4 µM (active)

COc1ccc(SCC(=O)c2cc(C)n(-c3ccc(OC(F)F)cc3)c2C)cc1
EC50 [9]: 3.16 µM (active)

O=C(Nc1nc2ccccc2[nH]1)Nc1ccccc1F
IC50 (Caspase-3): 18.5 µM (active)
IC50 [4]: 7.28 µM (active)
IC50 [5]: 10.6 µM (active)
IC50 [6]: 14.5 µM (active)
IC50 [10]: > 67.5 µM (inactive)
EC50 [11]: > 67.5 µM (inactive)
EC50 [12]: > 67.5 µM (inactive)
EC50 (cells): > 67.5 µM (inactive)

O=C(NCCN1CCC2(CC1)C(=O)NCN2Cc1ccccn1)c1ccc2ccccc2c1
IC50 (Phospholipase D2): 0.08 µM (active)
IC50 (Phospholipase D1): 2.63 µM (active)

COC(=O)Cc1cc(O)n(-c2nc3ccccc3[nH]2)n1
IC50 (Nonstructural protein 1): 12.5 µM (active)
AC50 [13]: 30.4 µM (active)

CC(C)NC(=O)NCC[C@@H]1CC[C@H](NS(=O)(=O)c2ccc(Oc3ccccc3)cc2)[C@@H](CO)O1
AC50 [14]: 32.1 µM (active)

O=c1cc(CN2CCc3ccccc32)nc2sccn12
EC50 [15]: 18.2 µM (active)
EC50 [16]: 0.231 µM (active)
EC50 [17]: 10.9 µM (active)
IC50 [18]: 22.9 µM (inactive)
